From publication PMC12089509, “NorA Efflux Pump Inhibitors: Expanding SAR Knowledge of Pyrazolo[4,3‐c][1,2]benzothiazine 5,5‐Dioxide Derivatives” (Archiv Der Pharmazie, 2025) come the findings set out here.

≈ marks a conversion by molar mass, not a printed value.

The term inhibition denotes how much of the control response was suppressed. In general, MIC refers to the smallest concentration in the dilution series that meets the test's criterion for growth inhibition. Higher therefore signals a less susceptible organism. One may read the viability as a read-out of living cells in per cent, often relative to untreated cells. In general, CC50 refers to the concentration that lowers cell viability or growth by half. A high value points to lower toxicity to the cells.

Series [1] deals with T1, S. aureus NorA efflux pump (SA-1199B strain, overexpresses the norA gene) (Staphylococcus aureus, UniProt P0A0J7).
T1 construct: endogenous in cells; host or cells: S. aureus SA-1199B (overexpresses norA; isogenic parent SA-1199)
T1 sequence (P0A0J7 whole entry): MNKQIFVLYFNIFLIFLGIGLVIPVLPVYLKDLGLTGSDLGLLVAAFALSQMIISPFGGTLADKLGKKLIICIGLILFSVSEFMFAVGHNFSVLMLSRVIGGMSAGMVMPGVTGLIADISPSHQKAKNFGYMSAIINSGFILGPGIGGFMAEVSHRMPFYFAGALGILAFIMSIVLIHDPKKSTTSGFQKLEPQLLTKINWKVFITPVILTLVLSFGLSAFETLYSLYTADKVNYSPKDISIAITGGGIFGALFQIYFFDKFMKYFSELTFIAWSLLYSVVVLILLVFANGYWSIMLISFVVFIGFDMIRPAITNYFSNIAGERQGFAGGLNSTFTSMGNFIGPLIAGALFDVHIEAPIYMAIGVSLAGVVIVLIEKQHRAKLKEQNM
The series is described as follows: EtBr efflux inhibition assay. The class given is cell-based. The note with it: for inhibition at 50 µM: read-out: EtBr efflux inhibition (%), compound at 50 µM, SA-1199B. The method, then:
EtBr efflux inhibition assays were conducted using the S. aureus SA‐1199B strain, which overexpresses the norA gene and has an A116E GrlA substitution. Each compound was tested at 50 µM (see Figure 2). The starting hit compound 1 was used as the internal standard for comparison with the previously reported data.
The cells were grown overnight in cation‐supplemented Mueller–Hinton broth (CAMHB) without any additives at 35°C. The organisms were subsequently diluted into CAMHB to obtain an optical density at 600 nm (OD600) of 0.7–0.8. Subsequently, the cells were pelleted and resuspended at an OD600 of 0.8 in 0.5 mL aliquots of CAMHB containing EtBr and carbonyl cyanide m‐chlorophenylhydrazone (CCCP) to “load” the cells with EtBr (final concentrations of 25 μM for EtBr and 100 μM for CCCP). Following 20 min of incubation at room temperature, the cells were pelleted and resuspended in 1 mL of fresh CAMHB. Immediately thereafter, 200 μL aliquots were transferred into the wells of white 96‐well plates, which either lacked or contained 50 or 10 μM of each test compound. Fluorescence was monitored continuously using a microplate reader (Infinite M200 Pro, TECAN) at excitation and emission wavelengths of 485 and 645 nm, respectively, for a period of 5 min. The experiments were conducted in triplicate, with two technical replicates per biological replicate. The efflux activity of the SA‐1199B strain was expressed as a percentage of fluorescence decrease over a 5‐min time course. The inhibition of this efflux by the test compounds was determined using the following equation: ([efflux in the absence] ‐ [efflux in the presence of test [compound])/[efflux in the absence of test compound] × 100, which yielded the percent efflux inhibition observed.
^a Experiments were performed in triplicate with two technical replicates per biological replicate. Efflux activity of SA-1199B was expressed as percent fluorescence decrease over a 5 min time course. Inhibition of this efflux by test compounds was determined using the equation [efflux in the absence] − [efflux in the presence of test [compound]/[efflux in the absence of test compound] × 100, giving the percent efflux inhibition observed.

For series [2], the system named is S. aureus SA-1199 (wild type). Put plainly: MIC determination against wild-type SA-1199. The format is cell-based. The note with it: Staphylococcus aureus, compound alone. The text has this:
(§1) This finding aligns with their mechanism of action, which involves the inhibition of NorA, which is only basally expressed in the wild‐type SA‐1199 strain.

The subject of series [3] is S. aureus SA-1199 (wild type). Put plainly: Synergistic assay with CPX against wild-type SA-1199. The format is cell-based, Staphylococcus aureus. The note with it: EPI at 3.13 µg/mL with CPX.
Excerpt: as §1

The nature of series [4]: MTT cytotoxicity assay on A549. The class given is cell-based. The note with it: human, A549 cells; for viability at 72 h, 12.5 µg/mL: A549, 12.5 μg/mL; for viability at 72 h, 12.5 µg/mL / viability at 72 h, 25 µg/mL / viability at 72 h, 50 µg/mL / viability at 72 h, 100 µg/mL: read-out: Cytotoxicity (% cell viability); for viability at 72 h, 25 µg/mL: A549, 25 μg/mL; for viability at 72 h, 50 µg/mL: A549, 50 μg/mL; for viability at 72 h, 100 µg/mL: A549, 100 μg/mL. The protocol: The MTT assay was performed on two human ATCC cell lines, that is, […] (CCL‐185) and MCF7 (HTB‐22), to test the potential cytotoxic effect of the compounds, after 72 h exposure, as previously described. Each compound was tested at concentrations ranging from 12.5 to 100 μg/mL. Untreated cells were considered as controls. The percentage of viable cells was calculated as follows: % Cell viability = 100 × treated well absorbance/untreated control well absorbance. All assays were performed once in technical quadruplicate.
On the technique in general: Tetrazolium dyes change colour on reduction, which living cells bring about.

Regarding `CN1c2c(-c3ccc(Cl)cc3)n[nH]c2-c2ccccc2S1(=O)=O` [Compound 10, 3‐(4‐Chlorophenyl)‐4‐methyl‐1,4‐dihydropyrazolo[4,3‐c][1,2]benzothiazine 5,5‐dioxide], the inhibition at 10 µM in series [1] (read-out: EtBr efflux inhibition (%), compound at 10 µM, SA-1199B) amounted to 95%. The inhibition at 50 µM in series [1] was determined as 100%. This compound also yielded an MIC in series [2] greater than 50 µg/mL. In addition, the “synergistic effect with CPX” value in series [3] is recorded as “did not show any synergistic effect”. Besides, in series [4], the viability at 72 h, 12.5 µg/mL came to 97 ± 2%; the viability at 72 h, 25 µg/mL amounted to 45 ± 3%; the viability at 72 h, 50 µg/mL was found to be 7%; the viability at 72 h, 100 µg/mL was 7 ± 2%. In series [4] (A549, MTT), the CC50 at 72 h is roughly 25 µg/mL (≈ 72.3 µM).
Take `O=S1(=O)Nc2c(-c3ccc(Cl)cc3)nn(-c3ccccc3)c2-c2ccccc21` [Compound 3]: in series [1], the inhibition at 50 µM came out at 7%. The compound also yielded a minimum inhibitory concentration (MIC) in series [2] greater than 50 µg/mL. The “synergistic effect with CPX” value in series [3] is given as “did not show any synergistic effect”. In series [4], the viability at 72 h, 12.5 µg/mL was determined as 94 ± 24%; the viability at 72 h, 25 µg/mL came out at 99 ± 20%; the viability at 72 h, 50 µg/mL was found to be 101 ± 24%; the viability at 72 h, 100 µg/mL worked out at 34 ± 10%.
